{
  "source": "paper PMC10318822",
  "about": "“Phase 1 dose-escalation study to evaluate the safety, tolerability, pharmacokinetics, and anti-tumor activity of FCN-159 in adults with neurofibromatosis type 1-related unresectable plexiform neurofibromas” (BMC Medicine, 2023)",
  "key": {"[1]": {"system": "patients with NF1-related PN with tumor pain", "assay": "Pain assessed by 11-point numerical rating scale (NRS-11)", "format": "in vivo, human", "description": "Efficacy was assessed by radiologic scans and clinical assessment."}, "[2]": {"system": "xenograft models (including human melanoma A375)", "parameters": "method as in doi:10.1158/1538-7445.AM2020-1951", "conditions": "nude mouse xenograft models (including human melanoma A375); cited from earlier work"}, "[3]": {"parameters": "method as in PMID 36627544", "conditions": "healthy volunteers, compared with fasted state; cited from earlier work"}, "[4]": {"system": "MAPK pathway (phosphorylation of MEK kinase and intracellular ERK)", "parameters": "method as in doi:10.1158/1538-7445.AM2020-1951", "conditions": "human colon cancer cells; preventing phosphorylation of MEK kinase and intracellular ERK; cited from earlier work"}, "CYP3A4": {"system": "CYP3A4", "parameters": "method as in PMID 36755948", "conditions": "in vitro study; cited from earlier work"}, "NF1-related PN": {"system": "NF1-related PN", "assay": "Tumor response by MRI volumetric analysis (Response Evaluation in Neurofibromatosis Schwannomatosis criteria)", "format": "in vivo, human", "conditions": "for Best overall response: Complete response / Best overall response: Disease progression / Best overall response: Not evaluable / Best overall response: Partial response / Best overall response: Stable disease: Investigator assessments", "excerpt": "Primary endpoints of the study were the DLT incidence rate, MTD, and RP2D. Secondary endpoints included other safety assessments, imaging tumor response (complete response [CR], PR, stable disease [SD], or progressive disease [PD]), and PK parameters of FCN-159. Adverse events were graded per CTCAE v5.0.\nAll patients underwent a complete medical history, physical examination, Eastern Cooperative Oncology Group (ECOG) assessment, and laboratory analysis of test results. Drug-related TEAEs, serious adverse events (SAEs), TEAEs of grade ≥ 3 toxicity, and TEAEs leading to drug discontinuation were reviewed on an ongoing basis. Efficacy was assessed by radiologic scans and clinical assessment. Tumor assessments per Response Evaluation in Neurofibromatosis Schwannomatosis criteria were performed by investigators using MRI volumetric analysis every 4 cycles within the first 2 years (± 7 days) and every 6 cycles after 2 years (± 14 days) until PD, death, patient's voluntary withdrawal from study treatment, or study termination. MRI sequences of […], T1- and T2-weighted sequences were chosen and the software of Extended Brilliance Workspace, SIGNA Premier and uExceed were used for MRI volumetric analysis. The same software was used for all tumor assessments at baseline and subsequent assessed timepoints of the same patient. Pain was assessed by an 11-point numerical rating scale (NRS-11)."}, "[5]": {"system": "patients with advanced NRAS mut+ melanoma", "parameters": "method as in PMID 36113242", "conditions": "cited from earlier work"}},
  "note": "Entries after “also recorded” stand apart in the source; their conditions may differ.",
  "data": [
    {"smiles": "Cn1c(=O)c(F)c(Nc2ccc(I)cc2F)c2c(=O)n(C3CC3)nc(-c3cccc(NS(=O)(=O)C4CC4)c3)c21", "note": "[FCN-159]", "values": [
      {"measurement": "Patients with reduction in pain intensity of at least 2 points", "setting": "[1]; NRS-11 score ≥ 2 at baseline (16/22), cycles 4 and 5, as of 9 August 2022", "value": 72.7, "unit": "%"},
      {"measurement": "Average decrease in pain scores", "setting": "[1]; across all patients, as of 9 August 2022", "value": 2.4, "unit": "points"},
      {"measurement": "Patients achieving complete pain relief at least once (score reduced to 0)", "setting": "[1]; as of 9 August 2022", "value": 13, "unit": "patients"},
      {"measurement": "Mean pain score reduction", "setting": "[1]; dose group of 8 mg", "value": 2.5, "unit": "points"},
      {"measurement": "Patients achieving meaningful pain improvement", "setting": "[1]; dose group of 8 mg (15/20)", "value": 75, "unit": "%"},
      {"measurement": "Tumor growth", "setting": "[2]", "value": "Anti-tumor activity was observed"},
      {"measurement": "Food effect on pharmacokinetic profile", "setting": "[3]", "value": "food did not affect the pharmacokinetic profile"},
      {"measurement": "Effect on downstream MAPK pathway", "setting": "[4]", "value": "blocks the downstream MAPK pathway"},
      {"measurement": "Metabolism", "setting": "CYP3A4", "value": "metabolized primarily by CYP3A4"},
      {"measurement": "Best overall response: Complete response", "setting": "NF1-related PN; 4 mg (n = 3)", "value": "0 n (%)"},
      {"measurement": "Best overall response: Disease progression", "setting": "NF1-related PN; 4 mg (n = 3)", "value": "0 n (%)"},
      {"measurement": "Best overall response: Not evaluable", "setting": "NF1-related PN; 4 mg (n = 3)", "value": "0 n (%)"},
      {"measurement": "Best overall response: Partial response", "setting": "NF1-related PN; 4 mg (n = 3)", "value": "1 (33.3) n (%)"},
      {"measurement": "Best overall response: Stable disease", "setting": "NF1-related PN; 4 mg (n = 3)", "value": "2 (66.7) n (%)"},
      {"measurement": "Best overall response: Complete response", "setting": "NF1-related PN; 6 mg (n = 4)", "value": "0 n (%)"},
      {"measurement": "Best overall response: Disease progression", "setting": "NF1-related PN; 6 mg (n = 4)", "value": "0 n (%)"},
      {"measurement": "Best overall response: Not evaluable", "setting": "NF1-related PN; 6 mg (n = 4)", "value": "0 n (%)"},
      {"measurement": "Best overall response: Partial response", "setting": "NF1-related PN; 6 mg (n = 4)", "value": "2 (50.0) n (%)"},
      {"measurement": "Best overall response: Stable disease", "setting": "NF1-related PN; 6 mg (n = 4)", "value": "2 (50.0) n (%)"},
      {"measurement": "Best overall response: Complete response", "setting": "NF1-related PN; 8 mg (n = 5)", "value": "0 n (%)"},
      {"measurement": "Best overall response: Disease progression", "setting": "NF1-related PN; 8 mg (n = 5)", "value": "0 n (%)"},
      {"measurement": "Best overall response: Not evaluable", "setting": "NF1-related PN; 8 mg (n = 5)", "value": "0 n (%)"},
      {"measurement": "Best overall response: Partial response", "setting": "NF1-related PN; 8 mg (n = 5)", "value": "2 (40.0) n (%)"},
      {"measurement": "Best overall response: Stable disease", "setting": "NF1-related PN; 8 mg (n = 5)", "value": "3 (60.0) n (%)"},
      {"measurement": "Best overall response: Complete response", "setting": "NF1-related PN; 12 mg (n = 4)", "value": "0 n (%)"},
      {"measurement": "Best overall response: Disease progression", "setting": "NF1-related PN; 12 mg (n = 4)", "value": "0 n (%)"},
      {"measurement": "Best overall response: Not evaluable", "setting": "NF1-related PN; 12 mg (n = 4)", "value": "0 n (%)"},
      {"measurement": "Best overall response: Partial response", "setting": "NF1-related PN; 12 mg (n = 4)", "value": "1 (25.0) n (%)"},
      {"measurement": "Best overall response: Stable disease", "setting": "NF1-related PN; 12 mg (n = 4)", "value": "3 (75.0) n (%)"},
      {"measurement": "Patients with progressive disease (PD)", "setting": "NF1-related PN; 16 evaluable patients", "value": "none experienced PD; also recorded: zero patients had PD"},
      {"measurement": "Patients with reduced tumor volume", "setting": "NF1-related PN; 16 patients with at least one post-baseline tumor assessment", "value": 100, "unit": "%"},
      {"measurement": "Best overall response: Complete response", "setting": "NF1-related PN; Total (n = 16)", "value": "0 n (%)"},
      {"measurement": "Best overall response: Disease progression", "setting": "NF1-related PN; Total (n = 16)", "value": "0 n (%)"},
      {"measurement": "Best overall response: Not evaluable", "setting": "NF1-related PN; Total (n = 16)", "value": "0 n (%)"},
      {"measurement": "Best overall response: Partial response", "setting": "NF1-related PN; Total (n = 16)", "value": "6 (37.5) n (%)"},
      {"measurement": "Best overall response: Stable disease", "setting": "NF1-related PN; Total (n = 16)", "value": "10 (62.5) n (%)"},
      {"measurement": "Largest reduction in tumor volume", "setting": "NF1-related PN; in vivo", "value": 84.2, "unit": "%"},
      {"measurement": "Patients achieving partial responses", "setting": "NF1-related PN; six of 16 evaluable patients", "value": 37.5, "unit": "%"},
      {"measurement": "DLTs or SAEs", "setting": "[5]; 6 mg or lower, as of October 20, 2020, dose escalated from 0.2 mg to 15 mg", "value": "no DLTs or SAEs were observed"},
      {"measurement": "Tolerability", "setting": "[5]; first-in-human study, NRAS mut+ melanoma", "value": "well tolerated"},
      {"measurement": "RP2D", "setting": "[5]; phase 1a study, advanced NRAS mut+ melanoma", "value": 12, "unit": "mg"}
    ]}
  ]
}
